Source: US20100093862A1, “POTENTIATION OF CELLULAR IMMUNITY USING HISTONE DEACETYLASE (HDAC) INHIBITORS” (Sapporo Medical Univeristy and Japan Science and Technology …, priority 2006, published 2010)

What was measured:
MCF-7 cells [1] = assay: Chromatin immunoprecipitation with anti-acetylated histone H3 antibody and PCR of B2M gene, MCF-7 cells; type: cell-based, human; conditions: 100 nM TSA, 24 hours
Procedure: (§1) Human breast cancer cell lines, that is, MCF-7 cells and HMC-1 cells were used to culture in the presence of 100 nM TSA (Sigma, USA) for 24 hours or 4 mM VPA (Sigma, USA) for 48 hours, respectively followed by extracting chromatin from the cells according to the manufacturer's instructions (Upstate Inc., USA) and immunoprecipitating the chromatin using anti-acetylated histone H3 antibody (Upstate Inc., USA) (see Assam El-Osta, et al. 2002. MOLECULAR AND CELLULAR BIOLOGY 22(6). p. 1844-1857). The genes binding to the acetylated histones were amplified by using PCR with the B2M gene-specific primers ([…] and […]), electrophoresed on 1% agarose gel followed by detecting with a transilluminator in the presence of ethidium bromide.

MCF-7 cells [2] = assay: Western blot of intracellular B2M, HLA class I heavy chain and actin, MCF-7 cells; type: cell-based, human; conditions: TSA 100 nM, 24 hours
Procedure: (§2) (1) Using the same cells as those in the example 1, MCF-7 cells and HMC-1 cells were cultured in the presence of TSA, a HDAC inhibitor, (100 nM) for 24 hours respectively, followed by harvesting them. (2) 1×10^6 cells are lysed in […] cell lysate (RIPA buffer) and a soluble fraction is harvested as a lysate. SDS sample buffer was added to the lysate. (3) The protein samples were loaded on 7.5% SDS polyacrylamide gel and electrophoresed. (4) The proteins in the gel were transferred on a PVDF membrane (Millipore). (5) The transferred membrane was immersed in 5% skim milk in PBS and blocked for about one hour. (6) The transferred membrane was immersed in a primary antibody (anti-pan-HLA class I heavy chain antibody EMR8-5 (Hokudo, Sapporo), or anti-B2M antibody EMRB6 (Hokudo, Sapporo), or anti-actin antibody (DAKO), and incubated for one hour at room temperature. (7) The transferred membrane was washed with a lavage PBS-T (0.05% Tween 20/PBS, pH7.4) three times. (8) The transferred membrane was immersed in a secondary antibody peroxidase-labeled anti-mouse IgG antibody (KPL, USA) and incubated for one hour at room temperature. (9) The transferred membrane was washed with a lavage PBS-T (0.05% Tween 20/PBS, pH7.4) three times. […] (11) Luminescent signals were detected by exposure to X ray film.

HMC-1 cells [3] = assay: Western blot of intracellular B2M, HLA class I heavy chain and actin, HMC-1 cells; type: cell-based, human; conditions: TSA 100 nM, 24 hours
Procedure: as §2

MCF-7 cells [4] = assay: Flow cytometry of cell surface MHC class I antigen (W6/32 antibody), MCF-7 cells; type: cell-based, human; conditions: TSA 100 nM, 24 hours, vs non-treated
Procedure: (§3) Using the same cells as those in the examples 1 and 2, MCF-7 cells and HMC-1 cells were cultured for 24 hours in the presence of HDAC inhibitor TSA (100 nM) or for 48 hours in the presence of HDAC inhibitor VPA (4 mM), respectively, and the level of MHC class I antigen expressing on the cell surface was analyzed by a flow cytometer (Becton Dickinson).
(§4) (1) 1×10^6 cells were floated in […] PBS buffer, added a primary antibody (an antipan-HLA class I antibody W6/32 (Barnstable, C. J., Bodmer, W. J., Brown, G., Galfre, G., Milstein, C., Williams, A. F., and Zeigler, A. (1978) Cell 14, 9-20)) and incubated for 40 minutes at 4° C. (2) The cells were washed twice with PBS. (3) To the suspended cell was added a secondary antibody (FITC-labeled anti-mouse IgG antibody (IPL, USA)) and incubated for 40 minutes at 4° C. (4) The cells were washed twice with PBS, floated in PBS added with 1% formalin followed by analyzing FITC level of the cell surface by a flow cytometer.

HMC-1 cells [5] = assay: Flow cytometry of cell surface MHC class I antigen (W6/32 antibody), HMC-1 cells; type: cell-based, human; conditions: vs non-treated
Procedure: as §3, §4

class I and II HDAC = conditions: Non-patent documents 5 and 6; cited from earlier work
HMC-1 cells [6] = assay: Chromatin immunoprecipitation with anti-acetylated histone H3 antibody and PCR of B2M gene, HMC-1 cells; type: cell-based, human; conditions: 4 mM VPA, 48 hours
Procedure: as §1

[7] = system: human breast cancer cell line MCF7 cells transplanted into SCID mice; assay: Immunostaining of MCF7 tumor transplanted into SCID mice after oral VPA; type: in vivo; conditions: SCID mouse, water containing 0.4% VPA for 10 days, vs control
Procedure: A human breast cancer cell line MCF7 cells were transplanted into SCID mice. […] One mouse was supplied with water containing 0.4% valproic acid (VPA, Sigma) for 10 days, and the other mouse was supplied with water with no additive as control. […] Following the method according to example 4, treatment of tissue slices as well as immunostaining with anti-HLA class I antibody (EMR8-5) and anti-B2M antibody (EMR-B6) were performed.

[8] = system: HIV infection T cells (clone 8E5); assay: Flow cytometry of cell surface HLA class I, HIV infection T cells; type: cell-based; conditions: HIV infection T cells (8E5), 4 mM valproic acid, 48 hours
Procedure: HIV infection T cells (clone 8E5, purchased from ATCC) were cultured in 4 mM valproic acid-added culture medium (RPMI1640) or non additive culture medium for 48 hours, and reacted with an anti-pan-HLA class I antibody, W6/32 antibody and with FITC-labeled anti-mouse IgG antibody for 40 minutes respectively, and the cells were fixed in 0.1% formalin/PBS. The fluorescence intensities were measured by flow cytometer (FACScan, Beckton Dickinson).

[9] = system: Papilloma virus persistent infection cells (HeLa cells); assay: Flow cytometry of cell surface HLA class I, papilloma virus persistent infection cells; type: cell-based; conditions: 4 mM valproic acid, 48 hours
Procedure: Papilloma virus persistent infection cells (HeLa cells) were cultured in 4 mM valproic acid-added culture medium (RPMI1640) or non additive culture medium for 48 hours, and reacted with an anti-pan-HLA class I antibody, W6/32 antibody and with FITC-labeled anti-mouse IgG antibody for 40 minutes respectively, and the cells were fixed in 0.1% formalin/PBS. The fluorescence intensities were measured by flow cytometer (FACS can, Beckton Dickinson).

[10] = system: EB virus persistent infection B cells (LG2EBV cells); assay: Flow cytometry of cell surface HLA class I, EB virus persistent infection B cells; type: cell-based; conditions: 4 mM valproic acid, 48 hours
Procedure: EB virus persistent infection B cells (LG2EBV cells) were cultured in 4 mM valproic acid-added culture medium (RPMI1640) or non additive culture medium for 48 hours, and reacted with an anti-pan-HLA class I antibody, W6/32 antibody and with FITC-labeled anti-mouse IgG antibody for 40 minutes respectively, and the cells were fixed in 0.1% formalin/PBS. The fluorescence intensities were measured by flow cytometer (FACScan, Beckton Dickinson).

[11] = system: Mumps virus persistent infection B cells (Akata-MP1 cells); assay: Flow cytometry of cell surface HLA class I, mumps virus persistent infection B cells; type: cell-based; conditions: 4 mM valproic acid, 48 hours
Procedure: Mumps virus persistent infection B cells (Akata-MP1 cells) were cultured in 4 mM valproic acid-added culture medium (RPMI1640) or non additive culture medium for 48 hours, and reacted with an anti-pan-HLA class I antibody, W6/32 antibody and with FITC-labeled anti-mouse IgG antibody for 40 minutes respectively, and the cells were fixed in 0.1% formalin/PBS. The fluorescence intensities were measured by flow cytometer (FACScan, Beckton Dickinson).

[12] = system: Measles virus persistent infection B cells (Raji-ZH cells); assay: Flow cytometry of cell surface HLA class I, measles virus persistent infection B cells; type: cell-based; conditions: 4 mM valproic acid, 48 hours
Procedure: Measles virus persistent infection B cells (Raji-ZH cells) were cultured in 4 mM valproic acid-added culture medium (RPMI1640) or non additive culture medium for 48 hours, and reacted with an anti-pan-HLA class I antibody, W6/32 antibody and with FITC-labeled anti-mouse IgG antibody for 40 minutes respectively, and the cells were fixed in 0.1% formalin/PBS. The fluorescence intensities were measured by flow cytometer (FACScan, Beckton Dickinson).

SMILES | B2M gene detected in anti-acetylated histone H3 immunoprecipitate (MCF-7 cells [1]) | expression level of intracellular HLA heavy chain and actin proteins (MCF-7 cells [2]) | level of intracellular B2M protein (MCF-7 cells [2]) | expression level of intracellular HLA heavy chain and actin proteins (HMC-1 cells [3]) | level of intracellular B2M protein (HMC-1 cells [3]) | increase of MHC class I level of the cell surface (MCF-7 cells [4]) | increase of MHC class I level of the cell surface (HMC-1 cells [5]; TSA 100 nM, 24 hours) | HDAC class selectivity (class I and II HDAC) | B2M gene detected in anti-acetylated histone H3 immunoprecipitate (HMC-1 cells [6]) | increase of MHC class I level of the cell surface (HMC-1 cells [5]; VPA 4 mM, 48 hours) | expression level of B2M in tumor [7] | expression level of HLA class I antigen in tumor [7] | HLA class I level on a cell surface [8] | HLA class I level on a cell surface [9] | HLA class I level on a cell surface [10] | HLA class I level on a cell surface [11] | HLA class I level on a cell surface [12]
CC(/C=C/C(=O)NO)=C\[C@@H](C)C(=O)c1ccc(N(C)C)cc1 [TSA, tricostatin A] | B2M gene was detected together with acetylated histones | no great difference | remarkably increased | no great difference | remarkably increased | about 10 times | about 10 times | inhibits class I and II HDAC | – | – | – | – | – | – | – | – | –
CCCC(CCC)C(=O)O [VPA, valproic acid] | – | – | – | – | – | – | – | preferably inhibits class I MAC compared with class II HDAC | B2M gene was detected together with acetylated histones | about 10 times | increased compared to control group | increased compared to control group | recovery of expression was observed | recovery of expression was observed | recovery of expression was observed | recovery of expression was observed | recovery of expression was observed
